# Entries after “also recorded” stand apart in the source; their conditions may differ.
# Experiments:
# [1] = low UV fluence (13 mJ/cm^2), PAA added before or after UV irradiation; cited from earlier work
# [2] = PAA demand/decay in WWTP secondary effluent (Equation 1 fit); assay type: physicochemical; conditions: for Decay (k, 1/min) / Demand (D, mg/L): PAA only disinfection
# Procedure: (§1) In this study, secondary effluent samples were collected and treated with PAA to achieve residual concentration*contact time (CTs) of 2.5-50 mg·min/L. PAA tests were conducted in clean glass beakers (500 or 2000 mL), and mixed continuously using a magnetic stirrer (600 rpm). Measurements of PAA residuals were collected over time, and E. coli samples were collected following PAA quenching using sodium bisulfite. The four samples collected between September 22-24 were each treated with PAA (CO=5.0 mg/L) in order to estimate the demand/decay for each sample. […] The demand/decay kinetic parameters were recalculated using the experimental results from each inactivation experiment.
# PAA residuals were fitted to a demand/decay curve using Equation 1. The PAA CT (mg·min/L) was determined by integrating the area under the demand/decay curve and is calculated using Equation 2. C=(C0−D)e^−kt [Equation 1] where, • C is the concentration of PAA (mg/L) at time t (min) • C0 is initial concentration of PAA (mg/L) • D is the instantaneous demand of PAA (mg/L) • k is the decay rate constant of PAA (1/min) • t is the contact time (min)
# [3] = system: total coliform; conditions: cited from earlier work
# [4] = system: E. coli; experiment: Combined UV and PAA disinfection tests on WWTP secondary effluent; assay type: cell-based, Escherichia coli
# From the text: For the UV+PAA experiment, effluent was first irradiated to UV fluences of 10, 15 or 20 mJ/cm^2, then dosed with PAA as described above. For the PAA+UV experiment, effluent was first dosed with PAA as described above. After set durations, portions of the sample were removed, PAA quenched with sodium bisulfite, and then subjected to UV fluences of 10, 15 or 20 mJ/cm^2. For the simultaneous PAA+UV experiment, two different scenarios were investigated. The first involved dosing PAA at the onset of UV irradiation, irradiating for a set duration, and then removing the sample from UV exposure and continuing to stir until a desired PAA contact time was achieved. The second scenario involved first dosing PAA and allowing it to stir for a period prior to subjecting it to UV irradiation.
# Three distinct scenarios were performed with respect to testing the combined UV and PAA disinfection processes: UV prior to PAA (UV→PAA), PAA prior to UV (PAA→UV), simultaneous UV and PAA (UV+PAA). For the UV→PAA tests, UV fluences of 10, 15, and 20 mJ/cm^2 were applied prior to PAA addition, and PAA CTs ranged from 5-25 mg·min/L. Each of FIGS. 14-26 illustrates the results for viable E. coli as a function of PAA CT exposure with different levels of UV fluence applied, prior to PAA treatment.
# [5] = system: E. coli; experiment: E. coli inactivation by PAA alone in WWTP secondary effluent (bench test); assay type: cell-based, Escherichia coli
# Procedure: as §1
# [formula] where, • CT is the integral PAA dose (concentration*contact time); mg·min/L (Santoro et al., 2015) PAA and UV Disinfection Kinetics
# To develop an disinfection kinetic model, the concentration of viable for E. coli can be plotted against either PAA—CT dose or UV fluence and the data fitted using the double exponential inactivation model, described in Equation 3. […]
# The E. coli inactivation kinetics by PAA was calculated for each sample by plotting the viable concentration of E. coli on a log scale (y-axis) against the PAA—CT dose (x-axis), and is shown in FIG. 11. […]
structure (smiles),measurement,setting,value
"CC(=O)OO [PAA, peracetic acid]",synergistic benefit of PAA combined with UV,[1],no synergistic benefit observed
same,"Decay (k, 1/min)",[2]; sample Sept. 22 - AM,0.063 min⁻¹
same,"Demand (D, mg/L)",[2]; sample Sept. 22 - AM,3.58 mg/L
same,"Decay (k, 1/min)",[2]; sample Sept. 22 - PM,0.057 min⁻¹
same,"Demand (D, mg/L)",[2]; sample Sept. 22 - PM,2.60 mg/L
same,"Decay (k, 1/min)",[2]; sample Sept. 24 - AM,0.056 min⁻¹
same,"Demand (D, mg/L)",[2]; sample Sept. 24 - AM,3.50 mg/L
same,"Decay (k, 1/min)",[2]; sample Sept. 24 - PM,0.058 min⁻¹
same,"Demand (D, mg/L)",[2]; sample Sept. 24 - PM,2.91 mg/L
same,decay rates,[2]; all samples,ca. 0.060 l/min
same,PAA demand,[2]; samples collected in the afternoon,ca. 2.75 mg/L
same,PAA demand,[2]; samples collected in the morning,ca. 3.5 mg/L
same,inactivation of total coliform,[3]; PAA 2 mg/L applied immediately before UV fluence of 192 mJ/cm^2,over 4 log
same,attainment of target disinfection levels,"[3]; PAA concentration between 2 and 8 mg/L, alone",unable to reach the target disinfection levels
same,attainment of E. coli disinfection targets,"[4]; PAA prior to UV (PAA→UV), PAA CT 10-23 mg·min/L, UV 10, 15, 20 mJ/cm^2",did NOT always result in the geometric mean or maximum disinfection targets being met
same,attainment of E. coli disinfection targets,"[4]; UV prior to PAA (UV→PAA), UV 10, 15, 20 mJ/cm^2, PAA CT 5-25 mg·min/L",both the maximum and geometric mean disinfection targets being met for at least one combination of fluence and CT; also recorded: consistently met disinfection targets
same,attainment of E. coli disinfection targets,"[4]; simultaneous UV+PAA, UV 10, 15, 20 mJ/cm^2, PAA CT 15-30 mg·min/L",could not achieve the geomean or maximum disinfection targets
same,PAA CT dose required to meet disinfection target,"[5]; target 63 MPN/100 mL (half the 30-day geomean permit), model from all data",49.2 mg·min/L
same,PAA CT dose required to meet disinfection target,"[5]; target 244 MPN/100 mL (half the daily maximum permit), model from poorest inactivation data",36.0 mg·min/L

# Reference: US10947129B2, “Fluid disinfection with ultraviolet radiation and a chemical disinfectant” (Trojan Technologies, priority 2015, dated 2021)
